Measured values: patent US8313779B2, “Evaluation method and screening method for substance having action of activating/suppressing innate immunity, agent and food product for activating/suppressing innate immune mechanism and method for producing the same” (Genome Pharmaceuticals Institute Co., Ltd., priority 2007, dated 2012)

System: isolated head muscle specimen of the silkworm larva
Assay: Inhibition of induced muscular contraction in the isolated head muscle specimen of the silkworm larva (pre-injection of test substance, then inducer)
Type: in vivo, silkworm (Bombyx mori) larva
Experimental: The experiment using kainic acid (0.2 mM) in place of peptideglycan was carried out as a control experiment. It has been known that kainic acid is an agonist of a glutamic acid receptor and induces the muscular contraction by strongly binding to a glutamine receptor to excessively stimulate the nerve. It has been already known that the muscular contraction induced by kainic acid is inhibited by L-glutamic acid.
The experiment using kainic acid (0.2 mM) in place of BmPP was carried out as the control experiment.
As the control experiment, 0.9% NaCl in place of the rabbit antiserum against BmPP was injected.

| SMILES | inhibition of muscular contraction induced by BmPP (L-glutamic acid 40 mM, 0.05 mL pre-injected, then BmPP (FIG. 4)) | inhibition of muscular contraction induced by kainic acid (L-glutamic acid 40 mM, 0.05 mL pre-injected, kainic acid 0.2 mM (FIG. 2)) | inhibition of muscular contraction induced by peptideglycan (L-glutamic acid 40 mM, 0.05 mL pre-injected, peptideglycan 0.5 mg/mL or 5 mg/mL, 0.05 mL (FIG. 2)) | inhibition of muscular contraction induced by β-glucan (L-glutamic acid pre-injected) | inhibition of muscular contraction induced by BmPP (N-acetylcysteine 200 mM, 0.05 mL pre-injected, 0.4 μg/mL BmPP (FIG. 6)) | inhibition of muscular contraction induced by kainic acid (N-acetylcysteine 200 mM, 0.05 mL pre-injected, 0.2 mM kainic acid (FIG. 6)) | inhibition of muscular contraction induced by air (N-acetylcysteine 200 mM, 0.05 mL pre-injected, 0.05 mL of air (FIG. 6)) | inhibition of muscular contraction induced by H2O2 (N-acetylcysteine 200 mM, 0.05 mL pre-injected, 125 mM H2O2 (FIG. 6)) | inhibition of muscular contraction induced by peptideglycan (N-acetylcysteine 200 mM, 0.05 mL pre-injected, peptideglycan = autoclaved Staphylococcus aureus (FIG. 6)) |
| --- | --- | --- | --- | --- | --- | --- | --- | --- | --- |
| N[C@@H](CCC(=O)O)C(=O)O [L-glutamic acid] | not inhibited | inhibited | not inhibited | not inhibited |  |  |  |  |  |
| CC(=O)N[C@@H](CS)C(=O)O [N-acetylcysteine] |  |  |  |  | no inhibitory effect | no inhibitory effect | inhibited | inhibited | inhibited |
